# Test results: US20080287435A1, “Active Ingredient Combinations Having Insecticide and Acaricide Properties” (Bayer CropScience AG, priority 2005, published 2008)
# Legend:
# Myzus persicae = Myzus persicae test (cabbage leaf dip); assay type: in vivo; details: concentration 20 ppm; peach aphid on cabbage leaves (Brassica oleracea), dipped
# Description: To produce a suitable preparation of active compound, one part by weight of active compound is mixed with the stated amounts of solvent and emulsifier, and the concentrate is diluted with emulsifier-containing water to the desired concentration.
# Cabbage leaves (Brassica oleracea) which are heavily infested by the peach aphid (Myzus persicae) are treated by being dipped into the preparation of active compound of the desired concentration.
# After the desired period of time, the kill in % is determined. 100% means that all aphids have been killed; 0% means that none of the aphids have been killed.
# Plutella xylostella = Plutella xylostella test (cabbage leaf dip); assay type: in vivo; details: concentration 0.16 ppm; diamond back moth caterpillars on dipped cabbage leaves
# Description: To produce a suitable preparation of active compound, 1 part by weight of active compound is mixed with the stated amounts of solvent and emulsifier, and the concentrate is diluted with emulsifier-containing Water to the desired concentration.
# Cabbage leaves (Brassica oleracea) are treated by being dipped into the preparation of active compound of the desired concentration and are populated with caterpillars of the diamond back moth (Plutella xylostella) while the leaves are still moist.
# After the desired period of time, the kill in % is determined. 100% means that all caterpillars have been killed; 0% means that none of the caterpillars have been killed.
structure (smiles),measurement,setting,value
"CC[S+]([O-])c1c(C#N)nn(-c2c(Cl)cc(C(F)(F)F)cc2Cl)c1N (centres unmarked) [Ethiprole, ethiprole]",Kill in % after 6 d,Myzus persicae,10%
same,Kill in % after 6 d,Plutella xylostella,0%
